Data as given in patent US6064908A, “Device for ionophoresis comprising at least a membrane electrode assembly, for the transcutaneous administration of active principles to a subject” (Elf Aquitaine, priority 1996, dated 2000).

Assay: administration of pentasaccharide sodium salt in mini pigs by iontophoresis at set current density; antifactor Xa plasma levels
Assay type: in vivo, mini pigs of the YUCATAN strain
Protocol: Administration in mini pigs of pentasaccharide sodium salt by iontophoresis at a set current density.
Specialists consider mini pigs of the YUCATAN strain to be an excellent animal model for studying the administration in man of medicaments by iontophoresis. This is because the skin structure of this animal is very similar to that of human skin.
The following tests were carried out on the aforementioned mini pig with the aim of comparing the administration by iontophoresis of the sodium salt of the pentasaccharide used in Example 1 with administration by subcutaneous injection.
For these tests, pairs of adhesive electrode assemblies were formed, each pair comprising a donor electrode assembly, equipped with a reversible negative electrode (active electrode) and containing the pentasaccharide to be administered, and a passive electrode assembly formed by a positive electrode (back electrode) in contact with a second reservoir element containing an arbitrary (i.e. indifferent) electrolyte.
In the donor electrode assembly according to the invention, as well as in the reference donor assembly, the electrode 6 made of chloridized silver contained a quantity of silver chloride equivalent to 1.8 mAh/cm^2, thus allowing the electrode to sustain the quantity of electricity flowing through the electrodes over the duration of the iontophoretic treatment, namely 0.88 mAh/cm^2.
The primary electrolyte medium constituting the primary reservoir element 11 of the donor electrode assembly according to the invention, as well as the conducting, absorbent, porous material forming the reservoir element 11 of the reference electrode assembly, each consisted of a sheet of blotting paper made of cellulose fibres supplemented by polypropylene fibrils, having a surface area of 20 cm^2 and a thickness of 0.5 mm and being impregnated, to a level of 50 mg/cm^2, with an aqueous solution containing 2% by weight of pentasaccharide. Each reservoir element 11 contained in total 1 g of solution, i.e. 20 mg of pentasaccharide over 20 cm^2 of active surface (1 mg/cm^2). 20 mg of pentasaccharide were therefore employed in total per animal.
The selectively permeable membrane separating the recesses 2 and 15 of the donor electrode assembly according to the invention, that is to say separating the primary 11 and secondary 20 reservoir elements of the said electrode assembly, consisted of a 50 μm thick film of the polyether block amide PEBAX MV 1041 defined in Example 1.
In each passive electrode assembly, the positive electrode (back electrode) made of chloridized silver contained a quantity of silver chloride equivalent to 0.1 mAh/cm^2 and the reservoir element associated with this electrode consisted of a sheet of blotting paper made of cellulose fibres supplemented by polypropylene fibrils having a surface area of 20 cm^2 and a thickness of 0.5 mm and was impregnated with an aqueous solution of NaCl to contain 6% by weight of this salt.
An electric signal generator which could be connected to the electrodes of each pair of electrode assemblies, made it possible to deliver a continuous electric signal of controlled intensity between the said electrodes.
Five days before each test, the animals were catheterized in the two jugulars, as is well known for any experimentation in medicament administration, in order to make it possible to take regular blood samples intended for assaying the antifactor Xa activities and thereby to evaluate the quantities of active principle that pass through the skin to enter the circulatory system and therefore to check the effectiveness of the iontophoretic treatment.
The animals, fasted from the day before the experiments, were placed in specialized hammocks. […]

SMILES: O=C(O)C1OC(OC2C(COS(=O)(=O)O)OC(OC3C(C(=O)O)OC(OC4C(COS(=O)(=O)O)OC(O)C(NS(=O)(=O)O)C4O)C(OS(=O)(=O)O)C3O)C(NS(=O)(=O)O)C2OS(=O)(=O)O)C(O)C(O)C1OC1OC(COS(=O)(=O)O)C(O)C(O)C1NS(=O)(=O)O (stereo not drawn) [pentasaccharide]
- bioavailability for the in-vivo tests vs in-vitro utilization factors (Example 2 vs Example 1): higher than the utilization factors which were obtained for the in-vitro tests
- Bioavailability (Test 2a: passive, no current): 0%
- plasma level, Antifactor Xa (Test 2a: passive, no current, 0 h): 0 units/ml
- plasma level, Antifactor Xa (Test 2a: passive, no current, 0.25 h): 0 units/ml
- plasma level, Antifactor Xa (Test 2a: passive, no current, 0.50 h): 0 units/ml
- plasma level, Antifactor Xa (Test 2a: passive, no current, 1.00 h): 0 units/ml
- plasma level, Antifactor Xa (Test 2a: passive, no current, 2.00 h): 0 units/ml
- plasma level, Antifactor Xa (Test 2a: passive, no current, 4.00 h): 0 units/ml
- plasma level, Antifactor Xa (Test 2a: passive, no current, 6.00 h): 0 units/ml
- plasma level, Antifactor Xa (Test 2a: passive, no current, 8.00 h): 0 units/ml
- plasma level, Antifactor Xa (Test 2a: passive, no current, 10.00 h): 0 units/ml
- plasma level, Antifactor Xa (Test 2a: passive, no current, 16.00 h): 0 units/ml
- plasma level, Antifactor Xa (Test 2a: passive, no current, 24.00 h): 0 units/ml
- plasma level, Antifactor Xa (Test 2a: passive, no current, 30.00 h): 0 units/ml
- plasma levels (antifactor Xa), invention vs reference iontophoresis (Test 2b vs Test 2c): more than three times higher
- plasma level, Antifactor Xa (Test 2b: iontophoresis, PEBAX MV 1041 membrane, 20 mg, 8 hours): 1 units/ml
- plasma level, Antifactor Xa (Test 2b: iontophoresis, PEBAX MV 1041 membrane, 20 mg, 8 hours, 0 h): 0 units/ml
- plasma level, Antifactor Xa (Test 2b: iontophoresis, PEBAX MV 1041 membrane, 20 mg, 8 hours, 0.25 h): 0.07 units/ml
- plasma level, Antifactor Xa (Test 2b: iontophoresis, PEBAX MV 1041 membrane, 20 mg, 8 hours, 0.50 h): 0.14 units/ml
- plasma level, Antifactor Xa (Test 2b: iontophoresis, PEBAX MV 1041 membrane, 20 mg, 8 hours, 1.00 h): 0.36 units/ml
- plasma level, Antifactor Xa (Test 2b: iontophoresis, PEBAX MV 1041 membrane, 20 mg, 8 hours, 2.00 h): 0.81 units/ml
- plasma level, Antifactor Xa (Test 2b: iontophoresis, PEBAX MV 1041 membrane, 20 mg, 8 hours, 4.00 h): 1.3 units/ml
- plasma level, Antifactor Xa (Test 2b: iontophoresis, PEBAX MV 1041 membrane, 20 mg, 8 hours, 6.00 h): 0.98 units/ml
- plasma level, Antifactor Xa (Test 2b: iontophoresis, PEBAX MV 1041 membrane, 20 mg, 8 hours, 10.00 h): 0.79 units/ml
- plasma level, Antifactor Xa (Test 2b: iontophoresis, PEBAX MV 1041 membrane, 20 mg, 8 hours, 16.00 h): 0.38 units/ml
- plasma level, Antifactor Xa (Test 2b: iontophoresis, PEBAX MV 1041 membrane, 20 mg, 8 hours, 24.00 h): 0.12 units/ml
- plasma level, Antifactor Xa (Test 2b: iontophoresis, PEBAX MV 1041 membrane, 20 mg, 8 hours, 30.00 h): 0.04 units/ml
- plasma level, Antifactor Xa (Test 2b: iontophoresis, PEBAX MV 1041 membrane, 20 mg, 8 hours, […]): 0.61 units/ml
- plasma level, Antifactor Xa (Test 2c: reference iontophoresis, no membrane, 20 mg, 8 hours): 0.35 units/ml
- plasma level, Antifactor Xa (Test 2c: reference iontophoresis, no membrane, 20 mg, 8 hours, 0 h): 0 units/ml
- plasma level, Antifactor Xa (Test 2c: reference iontophoresis, no membrane, 20 mg, 8 hours, 0.25 h): 0.03 units/ml
- plasma level, Antifactor Xa (Test 2c: reference iontophoresis, no membrane, 20 mg, 8 hours, 0.50 h): 0.05 units/ml
- plasma level, Antifactor Xa (Test 2c: reference iontophoresis, no membrane, 20 mg, 8 hours, 1.00 h): 0.09 units/ml
- plasma level, Antifactor Xa (Test 2c: reference iontophoresis, no membrane, 20 mg, 8 hours, 2.00 h): 0.13 units/ml
- plasma level, Antifactor Xa (Test 2c: reference iontophoresis, no membrane, 20 mg, 8 hours, 4.00 h): 0.27 units/ml
- plasma level, Antifactor Xa (Test 2c: reference iontophoresis, no membrane, 20 mg, 8 hours, 6.00 h): 0.29 units/ml
- plasma level, Antifactor Xa (Test 2c: reference iontophoresis, no membrane, 20 mg, 8 hours, 10.00 h): 0.34 units/ml
- plasma level, Antifactor Xa (Test 2c: reference iontophoresis, no membrane, 20 mg, 8 hours, 16.00 h): 0.11 units/ml
- plasma level, Antifactor Xa (Test 2c: reference iontophoresis, no membrane, 20 mg, 8 hours, 24.00 h): 0.08 units/ml
- plasma level, Antifactor Xa (Test 2c: reference iontophoresis, no membrane, 20 mg, 8 hours, 30.00 h): 0.01 units/ml
- plasma level, Antifactor Xa (Test 2c: reference iontophoresis, no membrane, 20 mg, 8 hours, […]): 0.14 units/ml
- plasma level, Antifactor Xa (Test 2d: subcutaneous injection 0.200 mg/kg, 0 h): 0 units/ml
- plasma level, Antifactor Xa (Test 2d: subcutaneous injection 0.200 mg/kg, 0.25 h): 0.11 units/ml
- plasma level, Antifactor Xa (Test 2d: subcutaneous injection 0.200 mg/kg, 0.50 h): 0.13 units/ml
- plasma level, Antifactor Xa (Test 2d: subcutaneous injection 0.200 mg/kg, 1.00 h): 0.17 units/ml
- plasma level, Antifactor Xa (Test 2d: subcutaneous injection 0.200 mg/kg, 2.00 h): 0.22 units/ml
- plasma level, Antifactor Xa (Test 2d: subcutaneous injection 0.200 mg/kg, 4.00 h): 0.26 units/ml
- plasma level, Antifactor Xa (Test 2d: subcutaneous injection 0.200 mg/kg, 6.00 h): 0.24 units/ml
- plasma level, Antifactor Xa (Test 2d: subcutaneous injection 0.200 mg/kg, 8.00 h): 0.15 units/ml
- plasma level, Antifactor Xa (Test 2d: subcutaneous injection 0.200 mg/kg, 10.00 h): 0.12 units/ml
- plasma level, Antifactor Xa (Test 2d: subcutaneous injection 0.200 mg/kg, 16.00 h): 0.06 units/ml
- plasma level, Antifactor Xa (Test 2d: subcutaneous injection 0.200 mg/kg, 24.00 h): 0.00 units/ml
- plasma level, Antifactor Xa (Test 2d: subcutaneous injection 0.200 mg/kg, 30.00 h): 0.00 units/ml
- plasma level, Antifactor Xa (Test 2d: subcutaneous injection 0.200 mg/kg, […]): 0.06 units/ml
